Experimental data from patent publication US20240174675A1, “SMALL MOLECULE REGULATORS OF ALVEOLAR TYPE 2 CELL PROLIFERATION FOR THE TREATMENT OF PULMONARY DISEASES” (THE SCRIPPS RESEARCH INSTITUTE, priority 2021, published 2024).

Key:
Human DPP4 = target: T1, Human DPP4 (Homo sapiens, UniProt P27487); test: DPP4 activity assay (DPP4 Activity Assay Kit, fluorescent substrate); format: biochemical; conditions: Human DPP4; read-out: DPP4 inhibition IC50 [nM])
T1 construct: purchased Sigma-Aldrich MAK088
Experimental: DPP4 activity assay. Human DPP4 activity assay data were obtained using a DPP4 Activity Assay Kit (Sigma-Aldrich, MAK088) according to the manufacturer's instructions. Briefly, 10 μL of DPP4 Assay Buffer were transferred per well in low volume 384-well plates before transferring 10 μL of test compound dissolved in DPP4 assay buffer. To each well was added 5 μL of Master Reaction Mix containing a fluorescent substrate that becomes fluorescent upon cleavage by the enzyme. Fluorescence intensity measurements were recorded at 1-minute time intervals over the course of 20 minutes using an Envision Multimode Plate Reader (PerkinElmer).

[1] = Pharmacokinetic profiling, plasma and lung levels after intratracheal or inhalation delivery in the mouse; format: in vivo; conditions: mouse; IT dosing at 2 mg/kg (FIG. 2); after 48 h

T1 sequence (P27487 whole entry): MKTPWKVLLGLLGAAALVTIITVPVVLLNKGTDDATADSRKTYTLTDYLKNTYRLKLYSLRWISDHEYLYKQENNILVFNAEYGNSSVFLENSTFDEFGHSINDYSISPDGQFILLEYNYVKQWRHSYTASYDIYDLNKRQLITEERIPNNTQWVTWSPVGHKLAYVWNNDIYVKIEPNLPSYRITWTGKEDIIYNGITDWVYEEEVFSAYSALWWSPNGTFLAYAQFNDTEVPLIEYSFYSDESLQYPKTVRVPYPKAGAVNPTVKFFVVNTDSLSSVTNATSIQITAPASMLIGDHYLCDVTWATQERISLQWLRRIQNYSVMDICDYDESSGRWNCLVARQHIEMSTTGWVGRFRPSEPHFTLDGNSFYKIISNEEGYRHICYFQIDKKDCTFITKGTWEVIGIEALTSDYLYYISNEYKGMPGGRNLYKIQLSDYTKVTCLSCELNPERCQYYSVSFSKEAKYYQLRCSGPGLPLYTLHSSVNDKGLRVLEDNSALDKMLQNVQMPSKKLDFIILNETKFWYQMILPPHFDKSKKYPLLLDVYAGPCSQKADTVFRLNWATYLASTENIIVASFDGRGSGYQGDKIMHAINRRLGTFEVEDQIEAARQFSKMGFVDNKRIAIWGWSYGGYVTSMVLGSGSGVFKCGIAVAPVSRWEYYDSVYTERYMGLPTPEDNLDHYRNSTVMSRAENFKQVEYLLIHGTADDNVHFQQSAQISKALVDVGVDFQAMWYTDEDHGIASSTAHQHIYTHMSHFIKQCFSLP

Row | SMILES | IC50 (Human DPP4) | level in the lung after 48 h [1]
1 | N[C@@H](CC(=O)N1CCn2c(C(F)(F)F)nc(C(=O)OCCOCCN3CCOCC3)c2C1)Cc1cc(F)c(F)cc1F [Compound 52, (R)-4-(1-((2-(2-morpholinoethoxy)ethoxy)carbonyl)-3-(trifluoromethyl)-5,6-dihydroimidazo[1,5-a]pyrazin-7(8H)-yl)-4-oxo-1-(2,4,5-trifluorophenyl)butan-2-aminium (2R,3R)-3-carboxy-2,3-dihydroxypropanoate] | 0.54 nM | –
2 | N[C@@H](CC(=O)N1CCn2c(C(F)(F)F)nc(C(=O)OCCCCCN3CCOCC3)c2C1)Cc1cc(F)c(F)cc1F [Compound 53, (R)-4-(1-(((5-morpholinopentyl)oxy)carbonyl)-3-(trifluoromethyl)-5,6-dihydroimidazo[1,5-a]pyrazin-7(8H)-yl)-4-oxo-1-(2,4,5-trifluorophenyl)butan-2-aminium (2R,3R)-3-carboxy-2,3-dihydroxypropanoate] | 1 nM | –
3 | N[C@@H](CC(=O)N1CCn2c(C(F)(F)F)nc(C(=O)OCCCCN3CCOCC3)c2C1)Cc1cc(F)c(F)cc1F [Compound 54, (R)-4-(1-((4-morpholinobutoxy)carbonyl)-3-(trifluoromethyl)-5,6-dihydroimidazo[1,5-a]pyrazin-7(8H)-yl)-4-oxo-1-(2,4,5-trifluorophenyl)butan-2-aminium (2R,3R)-3-carboxy-2,3-dihydroxypropanoate] | 0.5 nM | –
4 | CN1CC2(CC(NC(=O)c3nc(C(F)(F)F)n4c3CN(C(=O)C[C@H](N)Cc3cc(F)c(F)cc3F)CC4)C2)C1 [Compound 55, (R)-4-(1-((2-methyl-2-azaspiro[3.3]heptan-6-yl)carbamoyl)-3-(trifluoromethyl)-5,6-dihydroimidazo[1,5-a]pyrazin-7(8H)-yl)-4-oxo-1-(2,4,5-trifluorophenyl)butan-2-aminium (2R,3R)-3-carboxy-2,3-dihydroxypropanoate] | 17.8 nM | –
5 | COC(=O)c1nc(C(F)(F)F)n2c1CN(C(=O)C[C@H](N)Cc1cc(F)c(F)cc1F)CC2 [retagliptin, reference compound] | – | very low
